Structures can show the parent of a compound that is named as a salt.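 96-well plates; 48 h exposure; 5 concentrations. Endpoints by linear interpolation between flanking doses. Not reached: highest tested concentration assigned. GI50: concentration for 50% inhibition of growth.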 Calls of active or inactive are those of the source. Cut-off read from the data, not from the text of the source: active = GI50 up to about 1.1 µM and inactive = higher.
Experiments:
Experiment in all cases: growth of human tumour cells (NCI), 48 h
MDA-MB-231 = system: MDA-MB-231
SK-MEL-28 = system: SK-MEL-28
RPMI-8226 = system: RPMI-8226
786-0 = system: 786-0
HT-29 = system: HT-29
MDA-MB-435 = system: MDA-MB-435
HOP-62 = system: HOP-62
NCI-H23 = system: NCI-H23
K562 = system: K562
NCI/ADR-RES = system: NCI/ADR-RES
OVCAR-5 = system: OVCAR-5
SF-539 = system: SF-539
SNB-19 = system: SNB-19
UACC-62 = system: UACC-62
Malme-3M = system: Malme-3M
HCT-116 = system: HCT-116
A498 = system: A498
OVCAR-3 = system: OVCAR-3
SN12C = system: SN12C

Compound | GI50 (MDA-MB-231) | GI50 (SK-MEL-28) | GI50 (RPMI-8226) | GI50 (786-0) | GI50 (HT-29) | GI50 (MDA-MB-435) | GI50 (HOP-62) | GI50 (NCI-H23) | GI50 (K562) | GI50 (NCI/ADR-RES) | GI50 (OVCAR-5) | GI50 (SF-539) | GI50 (SNB-19) | GI50 (UACC-62) | GI50 (Malme-3M) | GI50 (HCT-116) | GI50 (A498) | GI50 (OVCAR-3) | GI50 (SN12C)
CCC1C(=O)C(O)[C@H]2[C@@H]3C(O)CC4=CC(=O)CC[C@]4(C)[C@H]3CC[C@]12C (stereo not given in full) | > 50 µM (inactive) | > 50 µM (inactive) | > 50 µM (inactive) | > 50 µM (inactive) | > 50 µM (inactive) | > 50 µM (inactive) | > 50 µM (inactive) | > 50 µM (inactive) | > 50 µM (inactive) | > 50 µM (inactive) | > 50 µM (inactive) | > 50 µM (inactive) | > 50 µM (inactive) | > 50 µM (inactive) | > 50 µM (inactive) | > 50 µM (inactive) | > 50 µM (inactive) | > 50 µM (inactive) | > 50 µM (inactive)
CCOC(=O)Cc1csc(N/C=C2/C(=O)Oc3ccccc3C2=O)n1 |  | 25.1 µM (inactive) | 18.6 µM (inactive) | 26.4 µM (inactive) | 39.1 µM (inactive) | 23.9 µM (inactive) | 20.9 µM (inactive) | 22.8 µM (inactive) |  | 17.7 µM (inactive) | 37.4 µM (inactive) | 16.9 µM (inactive) | 24.2 µM (inactive) | 13.5 µM (inactive) | 1.79 µM (inactive) | 27.6 µM (inactive) |  | 25.9 µM (inactive) | 
NNC(=O)CCC(=O)Nc1cc(Cl)c(Cl)cc1Cl |  | > 100 µM (inactive) | > 100 µM (inactive) | > 100 µM (inactive) | > 100 µM (inactive) |  | > 100 µM (inactive) | > 100 µM (inactive) | > 100 µM (inactive) |  | > 100 µM (inactive) | > 100 µM (inactive) | > 100 µM (inactive) | > 100 µM (inactive) | > 100 µM (inactive) | > 100 µM (inactive) | 38.3 µM (inactive) | 75.2 µM (inactive) | > 100 µM (inactive)
NCCCNCCCCNCCCN [SPERMINE TETRAHYDROCHLORIDE] | > 43.6 µM (inactive) |  | 0.284 µM (active) | 1.46 µM (inactive) | 15.6 µM (inactive) | > 41.2 µM (inactive) | > 100 µM (inactive) | 67 µM (inactive) | 2.33 µM (inactive) | 44.6 µM (inactive) | > 100 µM (inactive) | 8.83 µM (inactive) | > 100 µM (inactive) | > 100 µM (inactive) | 93.1 µM (inactive) | 2.73 µM (inactive) | > 100 µM (inactive) |  | 4.41 µM (inactive)
C/C(CCc1ccccc1)=N\NC(N)=S |  | > 100 µM (inactive) | 27.3 µM (inactive) | > 100 µM (inactive) | 27.8 µM (inactive) |  | > 100 µM (inactive) | > 100 µM (inactive) | > 100 µM (inactive) |  | > 100 µM (inactive) | 37.2 µM (inactive) |  | > 100 µM (inactive) | > 100 µM (inactive) | > 100 µM (inactive) | > 100 µM (inactive) | > 100 µM (inactive) | > 100 µM (inactive)
NC(=O)CCC(NC(=O)Cc1ccccc1)C(=O)O (stereo not given) |  | 1160 µM (inactive) | 1030 µM (inactive) | > 2470 µM (inactive) | > 2470 µM (inactive) |  | 1700 µM (inactive) | > 2470 µM (inactive) | > 2470 µM (inactive) |  | > 2470 µM (inactive) | 1420 µM (inactive) | > 2470 µM (inactive) | > 2470 µM (inactive) | 1530 µM (inactive) | 1090 µM (inactive) | > 2470 µM (inactive) | > 2470 µM (inactive) | > 2470 µM (inactive)
CC1=C(CO)C2=C(C)C3(CC3)[C@@](C)(O)C(=O)C2=C1 [IROFULVEN] | 0.303 µM (active) | 0.582 µM (active) | 34.1 µM (inactive) | 0.199 µM (active) | 0.234 µM (active) | 1.47 µM (inactive) | 0.161 µM (active) | 0.0877 µM (active) | 3.37 µM (inactive) | 0.241 µM (active) | 0.174 µM (active) | 0.172 µM (active) | 0.348 µM (active) |  | 0.218 µM (active) | 0.21 µM (active) | 0.179 µM (active) | 0.26 µM (active) | 0.409 µM (active)
Oc1ccc(-c2c3ccccc3c(-c3ccc(O)cc3)c3ccccc23)cc1 |  | > 100 µM (inactive) | 75.2 µM (inactive) | > 100 µM (inactive) | > 100 µM (inactive) |  | > 100 µM (inactive) | > 100 µM (inactive) | > 100 µM (inactive) |  | > 100 µM (inactive) | > 100 µM (inactive) | > 100 µM (inactive) | 41 µM (inactive) | > 100 µM (inactive) | 87.5 µM (inactive) | > 100 µM (inactive) | > 100 µM (inactive) | > 100 µM (inactive)
O=C(c1nc2ccccc2nc1O)C(O)c1ccccc1 (stereo not given) |  | 29.8 µM (inactive) | 53.5 µM (inactive) | > 100 µM (inactive) | > 100 µM (inactive) |  | > 100 µM (inactive) | > 100 µM (inactive) | 40.3 µM (inactive) |  | > 100 µM (inactive) | 44.1 µM (inactive) | > 100 µM (inactive) | 72.4 µM (inactive) | > 100 µM (inactive) | > 100 µM (inactive) | 39.5 µM (inactive) | > 100 µM (inactive) | > 100 µM (inactive)
O=C(CSc1nnc(Cc2ccccc2)o1)Nc1ccccc1 |  | > 100 µM (inactive) | > 100 µM (inactive) | > 100 µM (inactive) | > 100 µM (inactive) |  | > 100 µM (inactive) | > 100 µM (inactive) | > 100 µM (inactive) |  | > 100 µM (inactive) | > 100 µM (inactive) |  | > 100 µM (inactive) | > 100 µM (inactive) | > 100 µM (inactive) | > 100 µM (inactive) | > 100 µM (inactive) | > 100 µM (inactive)
O=C1C(c2ccc(Cl)cc2)=[N+]([O-])c2ccccc21 |  | 14.9 µM (inactive) | 14.9 µM (inactive) | 16.9 µM (inactive) | 19.8 µM (inactive) |  | 29.4 µM (inactive) | 16.1 µM (inactive) | 13.4 µM (inactive) |  | 22.9 µM (inactive) | 21 µM (inactive) | 23.3 µM (inactive) | 18.3 µM (inactive) | 17.8 µM (inactive) | 14.4 µM (inactive) | 24.7 µM (inactive) | 13.6 µM (inactive) | 18.1 µM (inactive)
CC1=C(NC(=O)/C(=N/NC(=S)NN)C2C(=O)CC(C)(C)CC2=O)C(=O)c2ccccc2C1=O |  | 12.9 µM (inactive) | 10.6 µM (inactive) | 10.9 µM (inactive) | 11.1 µM (inactive) |  | 16.1 µM (inactive) | 5.06 µM (inactive) | 10.6 µM (inactive) |  | 22.4 µM (inactive) | 3.6 µM (inactive) | 13 µM (inactive) | 2.49 µM (inactive) | 16 µM (inactive) | 3.97 µM (inactive) | 20.9 µM (inactive) | 2.3 µM (inactive) | 7.4 µM (inactive)

Source: ChEMBL document CHEMBL1201862, “PubChem BioAssay data set” (2004)
